Measured values: patent publication EP2526954A1, “Bioavailable silicon complex, method for preparing same and use thereof” (Dexsil Labs, priority 2011, dated 2012)

Experiments:
[1] = en solution aqueuse, en dessous d'un pH de 6,8; cited from earlier work
[2] = ATR-FTIR spectroscopy of the effect on artificial lipid bilayer membranes (phase transition); details: DPPC membranes
Description: (§1) L'effet, sur les bicouches lipidiques qui constituent les membranes biologiques, d'un complexe suivant l'invention renfermant de l'acide orthosilicique et de la vanilline, a été étudié par spectroscopie ATR-FTIR. Des membranes artificielles formées de DPPC (1,2 dipalmitoyl-sn-glycéro-3-phosphatydilcholine) ou d'un mélange 85/15 de DPPC/DPPS (1,2 dipalmitoyl-sn-glycéro-3-phosphatydilsérine) ont été utilisées. Les membranes présentent des transitions de phase à des températures caractéristiques (Tc à 41 °C et 53°C pour le DPPC et le DPPS respectivement). […] Les résultats tendent à montrer que le complexe s'insère dans la bicouche lipidique et de ce fait diminue les interactions entre les lipides. […] Il se produit une séparation de phase et le mélange lipidique n'est plus homogène. Ceci suggère que le composé aromatique stabilisant l'acide orthosilicique a une affinité plus grande pour un des deux lipides ce qui provoque une ségrégation spatiale des composants de la membrane.

[3] = ATR-FTIR spectroscopy of the effect on artificial mixed lipid bilayer membranes (phase transition); details: DPPC/DPPS 85/15 membranes
Description: as §1

Substance | dissociation du complexe [1] | effet sur la transition de phase des lipides [2] | effet sur le mélange lipidique [3]
complexe de silicium-catéchol | complètement dissocié |  | 
complexe stabilisé d'acide orthosilicique et de 4-hydroxy-3-méthoxybenzaldéhyde (vanilline) [Exemple 1] |  | diminue l'énergie requise pour que les lipides participent à la transition de phase | induit une démixtion des deux lipides
